Results on 4 compounds are retold here after US11992530B2 (priority 2018, dated 2024).

Values joined by “and” are separate entries in the source; they are usually repeats but may differ in a detail not shown here. Identical values can stand only once. Like-named read-outs stand apart in the source and are kept apart here.

For data set [1] the following is noted: for Cisplatin Concentration: 24° C. The procedure: In one aspect, a mixed mode C-18 chromatography column is used in the assay, which has both hydrophobic interaction and ion exchange capabilities. In another aspect, the HPLC run time for the assay is about 2 min, about 5 min, about 7.5 min, about 10 min or about 15 min. In one aspect, the HPLC run time is about 5 min or about 10 min.
In another aspect, the concentration is analyzed using HPLC with a mixed mode C-18 chromatography column at a column temperature of 35° C., flow rate of 400 μL/min, and UV detection at 220 nm. In one aspect, the HPLC method comprises a step gradient of 100% Buffer A (0.5 mM ammonium formate in 9:1 water:acetonitrile, pH 4) for 3 min; then 90% Buffer A and 10% Buffer B (200 mM ammonium formate in 7:3 water:acetonitrile, pH 4) for 3.5 min; then 100% Buffer A for 4.5 min.
The method uses a Waters Acquity H-Class HPLC system with an Imtakt Scherzo SW-C18 mixed mode column. The HPLC method conditions are outlined in Table 7. […] This range covers greater than two orders of magnitude at dose-relevant concentrations.
Each sample was transferred to an HPLC vial and placed in an autosampler chamber held at 24° C. Samples were injected onto the HPLC system approximately every 30 minutes to obtain 4 time-points for each sample. A gradient was run and the retention time and peak area were obtained.

Data set [2] concerns cisplatin-induced ototoxicity. From the text:
Reference is made to International Patent Application Publication No. WO 2019/108592, which is a continuation of U.S. patent application Ser. No. 15/826,243, filed on Nov. 29, 2017, both of which are incorporated by reference herein in their entirety.

Data set [3] in a line: Clinical pharmacokinetics (plasma levels, distribution, excretion). From the text:
The compound is available as anhydrous and crystalline forms; the pentahydrate crystalline form is the most common hydrate form. […] Proposed mechanisms of action involve its […], which allow it to act as a free radical scavenger and/or by covalent binding and inactivating the platinum compound.
(§1) Thiosulfate is an endogenous compound ubiquitously present in all cells and organs.

The conditions of data set [4]: animals.
Source text: as §1

Another data set relates to human plasma proteins.
Source text: as §1

For data set [5] the following is noted: cited from earlier work.
For data set [6], the system named is small cell lung cancer cell cultures. The settings on record: cited from earlier work.
Data set [7] is described as follows: Dynamic vapor sorption (DVS) isotherm. Particulars: for DVS weight loss upon desorption: hysteresis observed.
The mark [8] stands for this setting: thiosulfate:cisplatin 5:1 (n = 2).
[9] abbreviates: thiosulfate:cisplatin 6:1 (n = 2).
[10] abbreviates: thiosulfate:cisplatin 10:1 (n = 2).
Where [11] appears, read: preliminary clinical studies, dose equivalent to 5.1 g/m^2 sodium thiosulfate for injection.

Take `O=S([O-])([O-])=S.[Na+].[Na+]` [STS, sodium thiosulfate]: the “Half-life of cisplatin (time to reach 333/2 μM)” value stood at 3.3 h in data set [1] (setting [8]), 3.07 h in [1] (setting [9]) and 2.27 h in data set [1] (setting [10]). Besides, the “Slope, linear regression of cisplatin conc. vs. time” value in [1] (setting [8]) is listed as −0.80 Cisplatin Area/min; in data set [1] (setting [9]), −0.87 Cisplatin Area/min; in [1] (setting [10]) it was −1.13 Cisplatin Area/min. For the same compound, the “Cisplatin Concentration” value is 323.7 µM in [1] (thiosulfate:cisplatin 5:1, 4 min); 294.2 µM and 294.0 µM in data set [1] (thiosulfate:cisplatin 5:1, 37 min); 266.8 µM and 268.0 µM in data set [1] (thiosulfate:cisplatin 5:1, 70 min); 243.7 µM and 245.3 µM in [1] (thiosulfate:cisplatin 5:1, 103 min); 325.4 µM and 324.5 µM in [1] (thiosulfate:cisplatin 6:1, 5 min); 286.4 µM and 293.2 µM in data set [1] (thiosulfate:cisplatin 6:1, 38 min). The “Cisplatin Concentration” value in data set [1] (thiosulfate:cisplatin 6:1, 71 min) was 259.8 µM and 266.2 µM; in [1] (thiosulfate:cisplatin 6:1, 104 min), 235.6 µM and 240.5 µM; in data set [1] (thiosulfate:cisplatin 10:1, 4 min), 319.5 µM; in data set [1] (thiosulfate:cisplatin 10:1, 5 min) it was 320.3 µM; in [1] (thiosulfate:cisplatin 10:1, 37 min) it was 269.4 µM; in [1] (thiosulfate:cisplatin 10:1, 38 min), 278.5 µM. In addition, the “Cisplatin Concentration” value came to 235.2 µM in [1] (thiosulfate:cisplatin 10:1, 70 min); 239.6 µM in [1] (thiosulfate:cisplatin 10:1, 71 min); 205.6 µM in [1] (thiosulfate:cisplatin 10:1, 103 min); 209.3 µM in data set [1] (thiosulfate:cisplatin 10:1, 104 min). Moreover, the Prevention of ototoxicity entry in [2] (doses equivalent to 6.4 to 12.8 g/m^2 sodium thiosulfate for injection) was “prevented ototoxicity”. Moreover, the “Ototoxicity in pediatric patients treated with platinum based chemotherapeutics” value in [2] (pediatric patients) is given as “reduces ototoxicity”. Further, the Hearing protection entry in data set [2] (setting [11]) is given as “did not show hearing protection”. For the same compound, the Survival entry in [2] (treatment 6 hours after completion of each CIS infusion) is reported as “did not affect survival”. In data set [2] (two phase III clinical trials, pediatric patients), the “Efficacy of cisplatin based chemotherapeutics when STS was administered” value is listed as “not affected”. Further, the Plasma accumulation result in data set [3] (administered on 2 consecutive days) was “no plasma accumulation”. The Volume of distribution in data set [3] (adults) worked out at 0.23 L/kg. The “Maximum STS plasma levels” value in data set [3] (children and adults, 15-minute infusion, dose equivalent to 12.8 g/m^2 sodium thiosulfate for injection) was “approximately 13.3 mM”. Further, the “Distribution across the blood brain barrier or placenta” value in data set [3] (human, in vivo) is listed as “absent or limited”. Further, the “Absorption after oral administration” value in data set [3] (oral) is on record as “poorly absorbed”. For the same compound, in [3] (setting [11]), the Maximum plasma levels was determined as 3.9 mM. Besides, in data set [4], the “Distribution to the cochlea” value is “distribute to the cochlea”. In addition, the “Binding to human plasma proteins” value with human plasma proteins is “does not bind”. Further, the Serum sodium levels entry (doses equivalent to 12.8 g/m^2 sodium thiosulfate for injection) is on record as “small, transient increase”. The “Renal or other toxicities” value (pediatric patients treated with a platinum based chemotherapeutic) is “not exacerbate renal or other toxicities”. The “Excreted in the urine unmodified” value in data set [5] (following IV administration) is given as “Up to 95%”. Moreover, the Biological half-life in data set [5] (human, in vivo) is 0.65 hours. In addition, in data set [5] (human, in vivo), the “Biological half-life, range dependent on dose” value was 16.5-182 minutes. Further, in data set [6] (incubation for 72 hours), the “Cytotoxicity of etoposide after immediate or delayed addition of STS” value is reported as “no reduction of cytotoxicity”. Further, the “Anti-tumor activity of doxorubicin, carmustine (BCNU), paclitaxel, or methotrexate with STS” value in [6] (similar studies) is recorded as “no reduction of anti-tumor activity”.
Consider `O=S([O-])([O-])=S.[Na+].[Na+]` [anhydrous sodium thiosulfate, Sodium thiosulfate anhydrous], for which, in data set [7], the “DVS weight change upon equilibration to 0% relative humidity” value was “minimal weight change” and the “DVS weight loss upon desorption” value was found to be 51%.
`O.O.O.O.O.O=S([O-])([O-])=S.[Na+].[Na+]` [sodium thiosulfate pentahydrate]: in data set [7], the “DVS weight gain upon sorption” value is listed as 81%, the “DVS weight loss upon drying” value came to 27% and the “DVS weight loss upon desorption” value was 51%.
For the compound `O=S(O)(O)=S` [thiosulfate], the “Endogenous serum thiosulfate levels” value in data set [3] (adult volunteers) was determined as 5.5 ± 1.8 µM.
